The target in experiment [1] is T1, RIPK1 kinase (Homo sapiens, UniProt Q13546).
T1 construct: purchased Promega VA7593
T1 sequence (Q13546 1-671): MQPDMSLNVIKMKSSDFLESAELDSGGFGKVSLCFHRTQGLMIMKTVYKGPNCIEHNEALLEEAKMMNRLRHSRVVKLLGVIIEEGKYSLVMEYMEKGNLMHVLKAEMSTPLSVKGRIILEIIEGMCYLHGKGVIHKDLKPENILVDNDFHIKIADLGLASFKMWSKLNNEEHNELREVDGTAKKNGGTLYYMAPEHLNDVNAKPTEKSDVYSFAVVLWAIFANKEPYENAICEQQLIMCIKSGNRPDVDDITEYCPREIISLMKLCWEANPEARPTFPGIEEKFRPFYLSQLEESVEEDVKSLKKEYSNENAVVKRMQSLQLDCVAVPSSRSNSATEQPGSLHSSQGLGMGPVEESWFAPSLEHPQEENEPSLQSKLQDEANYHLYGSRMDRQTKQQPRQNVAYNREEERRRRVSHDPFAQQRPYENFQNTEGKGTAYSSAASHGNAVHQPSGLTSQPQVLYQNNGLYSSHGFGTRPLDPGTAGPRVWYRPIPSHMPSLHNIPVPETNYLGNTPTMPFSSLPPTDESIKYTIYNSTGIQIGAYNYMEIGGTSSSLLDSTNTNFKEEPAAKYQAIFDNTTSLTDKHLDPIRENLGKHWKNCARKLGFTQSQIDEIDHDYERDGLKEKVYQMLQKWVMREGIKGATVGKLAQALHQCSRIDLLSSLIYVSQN
Nature of the experiment: In vitro RIPK1 kinase activity assay (ADP-Glo), inhibition by compounds at 1 μM. In kind it is biochemical. The note with it: compound 1 μM; ATP 10 μM; MBP substrate 100 μg/mL; read-out: RIPK1 kinase activity inhibition rate range. The procedure, abridged: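 Read by ADP-Glo chemiluminescence as percent inhibition: RIPK1 kinase, 15-min room-temperature compound preincubation, then 1-h reaction with MBP (100 μg/mL final) and ATP (10 μM final). Enzyme level was set by titration.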
(ADP-Glo first removes unused ATP, then detects ADP through luciferase.)

In the next experiment the test system is U937 cells. Nature of the experiment: Inhibition rate of compound (1 μM) on necroptosis of U937 cells (TSZ-induced, CellTiter-Glo). The experiment is classed as cell-based. The note with it: TSZ (hTNF-α, SM-164, Z-VAD-FMK) 20 hours. The essentials: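 Percent inhibition comes from ATP luminescence (CellTiter-Glo), referenced to wells without TSZ and wells with TSZ alone. The compound was added to U937 cells 15 min ahead of a TNF-α/SM-164/Z-VAD-FMK mix, followed by 20 h culture at 37° C, 5% CO2.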
On the technique in general: ATP-based viability assays read luminescence as a measure of living cells.

Experiment [2] addresses T1, RIPK1 kinase. Nature of the experiment: In vitro RIPK1 kinase activity IC50 assay (ADP-Glo). The note with it: ATP 10 μM; MBP substrate 100 μg/mL; 8 concentration points; read-out: IC50 range of compounds for RIPK1 kinase activity. The experiment is classed as biochemical. The procedure, abridged:
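Human RIPK1 preincubated 15 min at room temperature with compound (8-point 1:5 dilution series, 1% DMSO in kinase buffer D). Reaction then ran 1 h with 10 μM ATP and 100 μg/mL MBP substrate; ADP measured by ADP-Glo luminescence, IC50 from four-parameter nonlinear fit.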

As usually defined, the inhibition is the change of the read-out against control, counted positive when it falls. As usually defined, the IC50 is the concentration needed to halve the response being measured. For `COC(=O)C1(C#Cc2ccc3c(c2)N(C)C(=O)[C@@H](NC(=O)C(=O)NCCc2ccccc2)CO3)CC1` [Example 96, methyl (S)-1-((5-methyl-4-oxo-3-(2-oxo-2-(phenethylamino)acetamido)-2,3,4,5-tetrahydrobenzo[b][1,4]oxazepin-7-yl)ethynyl)cyclopropane-1-carboxylate], the inhibition at 1 µM on RIPK1 kinase [1] is at least 75%. Also, the “Inhibition rate range of compounds (1 μM) on U937 cell necroptosis” value with U937 cells was “B (B: 50-89%)”. In addition, the IC50 at RIPK1 kinase [2] is under 100 nM.
Consider `CN1C(=O)[C@@H](NC(=O)C(=O)NCCc2cccs2)COc2ccccc21` [Example 97, (S)—N^1-(5-methyl-4-oxo-2,3,4,5-tetrahydrobenzo[b][1,4]oxazepin-3-yl)-N^2-(2-(thiophen-2-yl)ethyl)oxalamide], for which, on RIPK1 kinase [1], the inhibition at 1 µM was at least 75%. In the experiment on U937 cells, the “Inhibition rate range of compounds (1 μM) on U937 cell necroptosis” value was “A (A: ≥90%)”. For the same compound, the 50% inhibitory concentration (IC50) on RIPK1 kinase [2] is under 100 nM.
The like results for `CN1C(=O)[C@@H](NC(=O)C(=O)NCCc2ccsc2)COc2ccccc21` [Example 98, (S)—N-(5-methyl-4-oxo-2,3,4,5-tetrahydrobenzo[b][1,4]oxazepin-3-yl)-N^2-(2-(thiophen-3-yl)ethyl)oxalamide] were, in that order, at least 75%, “A (A: ≥90%)” and under 100 nM.
